{"source": "patent US10111848B2", "about": "(National Institute of Health and Medical Research, priority 2012, dated 2018)", "tested_on": "Subjects exhibiting GLUT1 deficiency", "assay": "Treatment of subjects exhibiting GLUT1 deficiency with triheptanoin (Example 1)", "assay_type": "in vivo", "details": "triheptanoin with each meal, about 30-35% of caloric intake, with or without other anti-epileptic drugs", "excerpt": "The subjects' seizure frequency is reduced and their neurologic and movement disorder is improved due to the restoration of brain energy metabolism and net biosynthesis."}
{"smiles": "CCCCCCC(=O)OCC(COC(=O)CCCCCC)OC(=O)CCCCCC", "note": "[triheptanoin, glyceryl triheptanoate]", "values": [{"measurement": "neurologic and movement disorder", "value": "improved"}, {"measurement": "seizure frequency", "value": "reduced"}]}
